Test system: H9 hESCs
Test: Screening of culture conditions by immunostaining for Oct4, Sox2, Brachyury, Sox17
Format: cell-based, human
Design: key to Pluripotency Oct4, fraction of expressing cells / Neuro Sox2, fraction of expressing cells / Meso Brachyury, fraction of expressing cells / Endo Sox17, fraction of expressing cells: 0 for absence of expression; VL for expressing cells <1%; L for expressing cells <5%; H for expressing cells >10%; VH for expressing cells >50%
Details: Conditions CDM (CDM-BSA), 7 days or more
Protocol: Table 2 and Table 3 show the screening of culture conditions for inducing mesoendoderm differentiation into CDM. H9 hESCs were grown for 7 days or more in CDM-BSA or CDM-PVA supplemented with different growth factors (Activin, BMP4, FGF2) or inhibitors (SU5402 for FGF, SB431542 for Activin/Nodal/TGFβ, BIO for βCatenin). Then, immunostaining analysis were used to determine the fractions of cells expressing the pluripotent marker Oct-4, neuroectoderm marker Sox2, the mesoderm marker Brachyury, and the endoderm marker Sox17. The quantities of expressing cells were divided into five arbitrary categories. 0 for absence of expression, VL for expressing cells <1%, L for expressing cells <5%, H for expressing cells >10%, VH for expressing cells >50%. IN red are indicated the conditions allowing the generation of mesendoderm cells expressing Brachyury or Sox17.
HESCs or differentiated progenitors were fixed for 20 minutes at 4° C. in 4% paraformaldehyde (PFA) and then washed three times in PBS. Cells were incubated for 20 minutes at room temperature in PBS containing 10% goat serum (Serotec) and subsequently incubated over night at 4° C. with primary antibody diluted in 1% goat serum in PBS as follows: SSEA-3 (1:100, Santa Cruz), SSAE-1 (1:25), Tra-1-60 (1:100, Santa CruZ), Oct-4 (1:100, Abcam ab18976 or SantaCruz), Sox2 (1:100, Abcam ab15830), Alkaline Phophatase (1:50, Abcam ab17989), Brachyury (1:100, Abcam ab20680 or RandD systems), Sox17 (RandD systems), FoxA2 (1:50, Abcam ab5074), GATA4 (1:250, Santa CruZ), GATA6 (1:200, Abcam ab22600 or Santa Cruz), Vent-2 (1:100, Abcam ab20913), Goosecoid (1:25, Abcam ab21059), Wnt3A (1:100, Abcam ab19925), CXCR4 (1:100, RanD Systems or Pharmingen). Nestin (1:200, Abcam ab5968), NCAM (1:100, Abcam ab8077), GFAP (ZZ), Neurofilament (ZZ), βIII Tubulin (ZZ), Glutamate (ZZ), N-Cadherin (1:100, Abcam ab18203 or ZZ). Cells were then washed three times in PBS and incubated with fluorescein-Isothiocyanate-conjugated anti-mouse IgG or IgM (Sigma 1:200 in 1% goat serum in PBS) or rat IgM (Jackson laboratory 1:300 in goat serum in PBS) or rabbit IgG (Jackson laboratory 1:200 in donkey serum in PBS) for two hours at room temperature. Unbound secondary antibody was removed by 3 washes in PBS. Hoechst 33258 was added to the first wash (Sigma 1:10000).
We then developed a method for inducing differentiation of hESCs into the three primary germ layers. Culture conditions inductive for mesoderm, endoderm and neuroectoderm were screened using an approach based on immunostaining analyses for the expression of proteins specifically expressed by pluripotent cells (Oct-4), neuroectoderm progenitors (Sox2 in absence of Oct4), endoderm progenitors (Sox17) and mesoderm progenitors (Brachyury). In summary, hESCs grown in CDM (CDM-BSA or hu-CDM) were plated on fibronectin in CDM-BSA/AF or CDM-PVA/AF. Then cocktails of growth factors (BMP4, FGF2, Activin) or chemical inhibitors (SU5402, SB431542) were added at different times and for different periods. After 7 to 10 days treatment, cells were fixed and then the expression of Oct-4/Sox2, Sox17 and Brachyury was analysed using immunostaining. The effect of three growth factors on the differentiation of hESCs into the primary germ layers was systematically analysed in our screen. We also studied the function of FGF and Activin signalling pathways in the maintenance of the pluripotent state by analysing the effect of the SU5402, a chemical inhibitor of FGF receptors, and the SB431542, a chemical inhibitor of Activin/TGFβ receptors.

BMP4: Bone Morphogenetic Protein 4 growth factor
0: Endo Sox17, fraction of expressing cells | Meso Brachyury, fraction of expressing cells | Neuro Sox2, fraction of expressing cells | Pluripotency Oct4, fraction of expressing cells

From US8323971B2, “Differentiation of pluripotent cells into primary germ layer progenitors” (Cambridge Enterprise Limited, priority 2006, dated 2012)
